Results as given in patent publication US20120225180A1, “SALTINESS-IMPROVING AGENT FOR SALTY FOOD AND DRINK” (priority 2009, published 2012).

Assay: Saltiness evaluation of shiokara (comparison evaluation of flavor by 10 panelists)
Type: in vivo
Conditions: for Evaluation A: the number of panelists who felt stimulation of saltiness / Evaluation B: the number of panelists who slightly felt stimulation of saltiness / Evaluation N: the number of panelists who judged that the stimulation of saltiness was reduced to mild saltiness / Flavor judgment: the number of panelists who judged it as most proper saltiness: 10 panelists
Protocol: Sedanenolide was added as a saltiness-improving agent (salty stimulation-reducing agent) of the present invention to commercially available salted squid to obtain shiokara containing sedanenolide at the concentrations shown in the following Table 1.
A: the number of panelists who felt stimulation of saltiness B: the number of panelists who slightly felt stimulation of saltiness N: the number of panelists who judged that the stimulation of saltiness was reduced to mild saltiness Flavor judgment: the number of panelists who judged it as most proper saltiness

[1] = shiokara containing 0.01 ppb sedanenolide
[2] = shiokara containing 0.01 ppm sedanenolide
[3] = shiokara containing 0.1 ppb sedanenolide
[4] = shiokara containing 0.1 ppm sedanenolide
[5] = shiokara containing 1 ppb sedanenolide
[6] = shiokara containing 1 ppm sedanenolide
[7] = shiokara containing 1 ppt sedanenolide
[8] = shiokara containing 10 ppm sedanenolide

## CCCC[C@@H]1OC(=O)C2=C1CCC=C2 [sedanenolide]
Amount of sedanenolide about 0.1 ppb to 1 ppm
  saltiness improvement, overall result: particularly good results
Low concentration of 0.01 ppb sedanenolide
  improvement in stimulation of saltiness: some panelists felt some improvement in stimulation of saltiness
[1]
  Evaluation A: the number of panelists who felt stimulation of saltiness: 6
  Evaluation B: the number of panelists who slightly felt stimulation of saltiness: 4
  Evaluation N: the number of panelists who judged that the stimulation of saltiness was reduced to mild saltiness: 0
  Flavor judgment: the number of panelists who judged it as most proper saltiness: 0
Shiokara containing 0.01 ppb to 10 ppm of sedanenolide
  stimulation of saltiness: improved
[2]
  Evaluation A: the number of panelists who felt stimulation of saltiness: 2
  Evaluation B: the number of panelists who slightly felt stimulation of saltiness: 2
  Evaluation N: the number of panelists who judged that the stimulation of saltiness was reduced to mild saltiness: 6
  Flavor judgment: the number of panelists who judged it as most proper saltiness: 3
[3]
  Evaluation A: the number of panelists who felt stimulation of saltiness: 2
  Evaluation B: the number of panelists who slightly felt stimulation of saltiness: 7
  Evaluation N: the number of panelists who judged that the stimulation of saltiness was reduced to mild saltiness: 1
  Flavor judgment: the number of panelists who judged it as most proper saltiness: 0
[4]
  Evaluation A: the number of panelists who felt stimulation of saltiness: 1
  Evaluation B: the number of panelists who slightly felt stimulation of saltiness: 2
  Evaluation N: the number of panelists who judged that the stimulation of saltiness was reduced to mild saltiness: 7
  Flavor judgment: the number of panelists who judged it as most proper saltiness: 4
[5]
  Evaluation A: the number of panelists who felt stimulation of saltiness: 3
  Evaluation B: the number of panelists who slightly felt stimulation of saltiness: 2
  Evaluation N: the number of panelists who judged that the stimulation of saltiness was reduced to mild saltiness: 5
  Flavor judgment: the number of panelists who judged it as most proper saltiness: 0
[6]
  Evaluation A: the number of panelists who felt stimulation of saltiness: 0
  Evaluation B: the number of panelists who slightly felt stimulation of saltiness: 1
  Evaluation N: the number of panelists who judged that the stimulation of saltiness was reduced to mild saltiness: 9
  Flavor judgment: the number of panelists who judged it as most proper saltiness: 2
[7]
  Evaluation A: the number of panelists who felt stimulation of saltiness: 10
  Evaluation B: the number of panelists who slightly felt stimulation of saltiness: 0
  Evaluation N: the number of panelists who judged that the stimulation of saltiness was reduced to mild saltiness: 0
  Flavor judgment: the number of panelists who judged it as most proper saltiness: 0
[8]
  Evaluation A: the number of panelists who felt stimulation of saltiness: 0
  Evaluation B: the number of panelists who slightly felt stimulation of saltiness: 1
  Evaluation N: the number of panelists who judged that the stimulation of saltiness was reduced to mild saltiness: 9
  Flavor judgment: the number of panelists who judged it as most proper saltiness: 1
